Test: Inhibition of calcium channel in pig carotid artery assessed as relaxation of KCl-induced vascular smooth muscle contraction

For `COC(=O)C1=C(C)NC(C)=C(C(=O)OC)C1c1ccccc1[N+](=O)[O-]` [NIFEDIPINE], the IC50 was 0.01 µM.

From ChEMBL document CHEMBL2040829, “Highly regioselective synthesis of N-3 organophosphorous derivatives of 3,4-dihydropyrimidin-2(1H)-ones and their calcium channel binding studies” (Eur J Med Chem, 2012)
